Inhibition and IC50 data for 19 compounds are collected here from patent US6245817A, “NPY5 receptor antagonists and methods for using same” (Bayer Corporation, priority 1999, dated 2001).

In one test the target is T1, Rat NPY5 Receptor (Rattus norvegicus, UniProt Q63634).
T1 sequence (Q63634 1-445): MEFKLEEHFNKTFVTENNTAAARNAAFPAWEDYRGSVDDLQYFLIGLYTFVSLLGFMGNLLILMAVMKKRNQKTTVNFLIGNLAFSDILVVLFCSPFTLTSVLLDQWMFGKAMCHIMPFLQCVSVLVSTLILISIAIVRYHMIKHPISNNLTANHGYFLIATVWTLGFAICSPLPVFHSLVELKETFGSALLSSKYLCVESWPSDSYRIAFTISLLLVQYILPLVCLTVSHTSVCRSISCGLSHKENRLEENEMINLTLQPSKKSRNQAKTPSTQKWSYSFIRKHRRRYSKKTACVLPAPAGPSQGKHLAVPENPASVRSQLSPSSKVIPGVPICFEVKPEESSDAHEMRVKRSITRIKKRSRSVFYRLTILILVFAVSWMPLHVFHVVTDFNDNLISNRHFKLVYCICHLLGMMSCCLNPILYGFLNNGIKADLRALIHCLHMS
The test can be described thus: Rat NPY5 Receptor Binding Assay. As to conditions: 10 μM, values marked *; read-out: rNPY5 percent inhibition at 10 μM.
As for `O=C(CSc1ncc[nH]1)Nc1ccc(C(=O)c2ccccc2)cc1` [Compound 10, N-(4-Benzoyl-phenyl)-2-(1H-imidazol-2-ylsulfanyl)-acetamide], the inhibition at 10 µM came out at 97%.

The test is the same for the next values; noted with them: [125I]PYY; read-out: rNPY5 IC50.
As to `O=C(CSc1ccnc2cc(C(F)(F)F)ccc12)Nc1ccc(C2CCCCC2)cc1` [Compound 93, N-(4-Cyclohexyl-phenyl)-2-(7-trifluoromethyl-quinolin-4-ylsulfanyl)-acetamide], the IC50 was more than 1000 nM. With `COc1ccc(-c2nnc(SCC(=O)Nc3ccc(C4CCCCC4)cc3)n2-c2cccc(C(F)(F)F)c2)cc1` [Compound 113, N-(4-Cyclohexyl-phenyl)-2-[5-(4-methoxy-phenyl)-4-(3-trifluoromethyl-phenyl)-4-[1,2,4]triazol-3-ylsulfanyl]-acetamide], the half-maximal inhibitory concentration (IC50) is more than 1000 nM.

In the case of `Nc1cc(N)nc(SCC(=O)Nc2ccc(C(=O)c3ccccc3)cc2)n1` [Compound 84, N-(4-Benzoyl-phenyl)-2-(4,6-diamino-pyrimidin 2-ylsulfanyl)-acetamide], the IC50 was more than 1000 nM. With `O=C(CSc1n[nH]c(-c2ccco2)n1)Nc1ccc(C(=O)c2ccccc2)cc1` [Compound 118], the concentration for half-maximal inhibition (IC50) is more than 1000 nM. With `CN1CCC(OCC(=O)Nc2ccc(C(=O)c3ccccc3)cc2)CC1` [Compound 133, N-(4-Benzoyl-phenyl)-2-(1-methyl-piperidin-4-yloxy)-acetamide], the IC50 was more than 1000 nM.

As for `Cn1nnnc1SCC(=O)NCCc1cccs1` [Compound 126, 2-(1-Methyl-1H-tetrazol-5-ylsulfanyl)-N-(2-thiophen-2-yl-ethyl)-acetamide], the IC50 was more than 1000 nM. With `Nc1ccc(SCC(=O)Nc2ccc(C(=O)c3ccccc3)cc2)cc1` [Compound 103, 2-(4-Amino-phenylsulfanyl)-N-(4-benzoyl-phenyl)-acetamide], the half-maximal inhibitory concentration (IC50) is more than 1000 nM. On to `Cn1nnnc1SCC(=O)Nc1cccc2c1Cc1ccccc1-2` [Compound 131, N-(9H-Fluoren-1-yl)-2-(1-methyl-1H-tetrazol-5-ylsulfanyl)-acetamide], for which the IC50 was more than 1000 nM. Still for that read-out and setting: to `O=C(COc1ccccc1)Nc1ccc(C2CCCCC2)cc1` [Compound 132, N-(4-Cyclohexyl-phenyl)-2-phenoxy-acetamide] belongs more than 1000 nM.

A further test has as its target T2, Human NPY5 Receptor (Homo sapiens, UniProt Q15761).
T2 sequence (Q15761 1-445): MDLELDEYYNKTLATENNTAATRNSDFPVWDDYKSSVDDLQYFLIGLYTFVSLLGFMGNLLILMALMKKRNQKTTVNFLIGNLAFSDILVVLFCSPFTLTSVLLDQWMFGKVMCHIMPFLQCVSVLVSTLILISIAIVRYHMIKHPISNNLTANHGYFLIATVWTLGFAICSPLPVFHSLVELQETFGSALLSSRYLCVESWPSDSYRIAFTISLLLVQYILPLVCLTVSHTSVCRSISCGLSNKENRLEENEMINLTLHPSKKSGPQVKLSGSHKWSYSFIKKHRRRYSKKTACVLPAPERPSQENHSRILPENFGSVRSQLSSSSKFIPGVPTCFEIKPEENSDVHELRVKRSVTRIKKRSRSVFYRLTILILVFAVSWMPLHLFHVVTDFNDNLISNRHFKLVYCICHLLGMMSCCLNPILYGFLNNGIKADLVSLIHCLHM
The test can be described thus: Human NPY5 Receptor Binding Assay. As to conditions: [125I]PYY; read-out: hNPY5 IC50.
For the compound `O=C(CSc1nc2cc(Cl)ccc2s1)Nc1ccc(C2CCCCC2)cc1` [Compound 79], the IC50 is more than 1000 nM. The same measure, in the same setting: to `Nc1nc(SCC(=O)Nc2ccc(C3CCCCC3)cc2)nc(O)c1N=O` [Compound 78, 2-(4-Amino-6-hydroxy-5-nitroso-pyrimidin-2-ylsulfanyl)-N-(4-Cyclohexyl-phenyl)-acetamide] belongs more than 1000 nM; to `Cc1cc(C)nc(SCC(=O)Nc2ccc(C3CCCCC3)cc2)n1` [Compound 80, N-(4-Cyclohexyl-phenyl)-2-(4,6-dimethyl-pyrimidin-2-ylsulfanyl)-acetamide], more than 1000 nM; to `O=C(CSc1nccc(C(F)(F)F)n1)Nc1ccc(C2CCCCC2)cc1` [Compound 75, N-(4-Cyclohexyl-phenyl)-2-(4-trifluoromethylpyrimidin-2-ylsulfanyl)-acetamide], more than 1000 nM. On to `Cc1ccnc(SCC(=O)Nc2ccc(C3CCCCC3)cc2)n1` [Compound 29], for which the IC50 is 190 nM. On to `Cc1nc(SCC(=O)Nc2ccc(C3CCCCC3)cc2)n[nH]1` [Compound 73, N-(4-Cyclohexyl-phenyl)-2-(5-methyl-1H-[1,2,4]triazol-3-ylsulfanyl)-acetamide], for which the IC50 is more than 1000 nM. Regarding `O=C(CSc1ncnc2ccccc12)Nc1ccc(C2CCCCC2)cc1` [Compound 74, N-(4-Cyclohexyl-phenyl)-2-(quinazolin-4-ylsulfanyl)-acetamide], the half-maximal inhibitory concentration (IC50) is more than 1000 nM. As to `CCOc1ccc2nc(SCC(=O)Nc3ccc(C4CCCCC4)cc3)sc2c1` [Compound 77, N-(4-Cyclohexyl-phenyl)-2-(6-ethoxy-benzothiazol-2-ylsulfanyl)-acetamide], the half-maximal inhibitory concentration (IC50) was more than 1000 nM. Turning to `Nc1cc(N)nc(SCC(=O)Nc2ccc(C3CCCCC3)cc2)n1` [Compound 76, N-(4-Cycyclohexyl-phenyl)-2-(4,6-diamino-pyrimidin-2-ylsulfanyl)-cetamide], the half-inhibitory concentration (IC50) is more than 1000 nM.

Broadly, the inhibition is the change of the read-out against control, counted positive when it falls. As a reminder, the IC50 is the concentration that gives 50% inhibition.
